According to patent US20250353873A1, “COMPOUNDS AND METHODS FOR MODULATING APOE EXPRESSION” (Ionis Pharmaceuticals, Inc., priority 2024, published 2025):
Strand notation (5' to 3'): a small letter for the sugar, then the base; units joined by * are phosphorothioate-linked, units joined directly phosphodiester-linked; [ ] holds rarer units or linkages, { } end groups; capitals alone tell only the bases. [ms] = mesyl phosphoramidate linkage; e = 2'-O-(2-methoxyethyl) (MOE); k = constrained ethyl (cEt); [5mC] = 5-methylcytosine; d = 2'-deoxy (DNA)

What was measured:
human APOE RNA [1] = assay: Activity in APOE C57BL/6NTac-Apoeem7250 knock-in mice, single ICV bolus, 4 weeks (Example 10); assay type: in vivo; details: single ICV bolus 300 μg, 4 weeks post treatment, normalized to mouse Ppia
Experimental: Modified oligonucleotides described above were tested in the APOE C57BL/6NTac-Apoeem7250 knock-in mouse model described above.
APOE C57BL/6NTac-Apoeem7250 knock-in mice were divided into groups of 2-4 mice each. Each mouse received a single ICV bolus of 300 μg of modified oligonucleotide. A group of 3-4 mice received a single ICV bolus with PBS as a negative control.
Four weeks post treatment, mice were sacrificed and RNA was extracted from cortical brain tissue and spinal cord for quantitative real-time RT-PCR analysis of RNA expression of APOE using human primer probe set RTS3073 (described herein above). APOE RNA levels were normalized to mouse Ppia. Mouse Ppia was amplified using primer probe set m_cyclo24 (described herein above). Results are presented as percent human APOE RNA relative to the amount of human APOE RNA in PBS treated animals, (% control). Each experiment is identified in separate tables below.

human APOE RNA [2] = assay: Dose-dependent inhibition of human APOE RNA in HepG2 cells, electroporation, 50,000 cells per well, RT-PCR normalized to GAPDH (Example 4, Tables 8-10); assay type: cell-based; details: HepG2, electroporation, 24-hour treatment
Experimental: Modified oligonucleotides selected from the examples above were tested at various doses in HepG2 cells. The modified oligonucleotides were tested in a series of experiments that had the same culture conditions. Each experiment is identified in separate tables below.
HepG2 cells plated at a density of 50,000 cells per well were treated by electroporation with various concentrations of modified oligonucleotide as specified in the tables below. […] APOE RNA levels were measured using the human primer probe set RTS3073 (forward sequence […], designated herein as SEQ ID NO: 7; reverse sequence CCATCAGCGCCCTCAGTT, designated herein as SEQ ID NO: 8; probe sequence […], designated herein as SEQ ID NO:9). APOE RNA levels were normalized to human GAPDH. […] Results are presented as percent APOE RNA, relative to the amount of APOE RNA in untreated control cells (UTC).

human APOE RNA [3] = assay: Activity in APOE C57BL/6NTac-Apoeem7250 knock-in mice, single ICV bolus, 16 weeks (Example 12); assay type: in vivo; details: single ICV bolus 300 μg, 16 weeks post treatment, normalized to mouse Ppia
Procedure, shortened: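 A single 300 μg intracerebroventricular dose was given, with PBS-treated mice as reference; cortical and spinal cord tissue was taken 16 weeks later. RT-qPCR quantified human APOE RNA, Ppia-normalized, expressed relative to PBS animals (% control).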

human APOE RNA [4] = assay: Activity in APOE C57BL/6NTac-Apoeem7250 knock-in mice, single ICV bolus, 8 weeks (Example 11); assay type: in vivo; details: single ICV bolus 300 μg, 8 weeks post treatment, normalized to mouse Ppia
Procedure, shortened: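 Cortical and spinal cord human APOE RNA quantified by RT-qPCR 8 weeks after a single 300 μg ICV dose in knock-in mice, Ppia-normalized. Values are percent of levels in PBS-treated animals.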

Substance | APOE RNA (% control) Cortex (human APOE RNA [1]) [% control] | APOE RNA (% control) Spinal Cord (human APOE RNA [1]) [% control] | APOE RNA (% UTC) (human APOE RNA [2]; 5 nM) | APOE RNA (% UTC) (human APOE RNA [2]; 13 nM) | APOE RNA (% UTC) (human APOE RNA [2]; 33 nM) | APOE RNA (% UTC) (human APOE RNA [2]; 82 nM) | APOE RNA (% UTC) (human APOE RNA [2]; 205 nM) | APOE RNA (% UTC) (human APOE RNA [2]; 512 nM) | APOE RNA (% UTC) (human APOE RNA [2]; 1,280 nM) | APOE RNA (% UTC) (human APOE RNA [2]; 3,200 nM) | APOE RNA (% UTC) (human APOE RNA [2]; 8,000 nM) | APOE RNA (% UTC) (human APOE RNA [2]; 20,000 nM) | IC50 (human APOE RNA [2]) [µM] | APOE RNA (% control) Cortex (human APOE RNA [3]) [% control] | APOE RNA (% control) Spinal Cord (human APOE RNA [3]) [% control] | APOE RNA (% control) Cortex (human APOE RNA [4]) [% control] | APOE RNA (% control) Spinal Cord (human APOE RNA [4]) [% control]
1746806 (k[5mC]*kT*dT[ms]dG[ms]kG*dT[ms]dG[ms]dA[ms]dA[ms]dT*d[5mC]*dT*dT*dT*dA[ms]dT*dT[ms]kA*kA*kA; antisense) [Compound 1746806] | 92 | 75 | 122 | 101 | 107 | 91 | 83 | 80 | 57 | 39 | 25 | 37 | 2.58 | – | – | – | –
1746807 (k[5mC]*kT*dT[ms]dG[ms]dG[ms]kT*dG[ms]dA[ms]dA[ms]dT*d[5mC]*dT*dT*dT*dA[ms]dT*dT[ms]kA*kA*kA; antisense) [Compound 1746807] | 90 | 119 | 119 | 127 | 111 | 86 | 88 | 62 | 52 | 29 | 16 | 30 | 1.43 | – | – | – | –
1746802 (k[5mC]*dT[ms]dT[ms]dG[ms]kG*kT*dG[ms]dA[ms]dA[ms]dT*d[5mC]*dT*dT*dT*dA[ms]dT*kT*dA[ms]kA*kA; antisense) [Compound 1746802] | 72 | 52 | 76 | 108 | 74 | 72 | 58 | 57 | 36 | 47 | 39 | 3 | 0.78 | – | – | – | –
1746794 (k[5mC]*kT*kT*dG[ms]dG[ms]dT[ms]dG[ms]dA[ms]dA[ms]dT*d[5mC]*dT*dT*dT*dA[ms]dT*kT*dA[ms]kA*kA; antisense) [Compound 1746794] | 76 | 41 | 119 | 107 | 94 | 91 | 67 | 72 | 37 | 16 | 9 | 3 | 0.8 | – | – | – | –
1746792 (k[5mC]*dT[ms]dT[ms]kG*dG[ms]kT*dG[ms]dA[ms]dA[ms]dT*d[5mC]*dT*dT*dT*dA[ms]dT*kT*kA*dA[ms]kA; antisense) [Compound 1746792] | 71 | 49 | 80 | 102 | 90 | 87 | 68 | 44 | 17 | 12 | 8 | 6 | 0.4 | – | – | – | –
1746812 (k[5mC]*dT[ms]dT[ms]dG[ms]kG*kT*dG[ms]dA[ms]dA[ms]dT*d[5mC]*dT*dT*dT*dA[ms]dT*dT[ms]kA*kA*kA; antisense) [Compound 1746812] | 68 | 79 | 105 | 109 | 90 | 102 | 86 | 76 | 51 | 31 | 19 | 11 | 1.5 | – | – | – | –
1746797 (k[5mC]*kT*dT[ms]dG[ms]dG[ms]kT*dG[ms]dA[ms]dA[ms]dT*d[5mC]*dT*dT*dT*dA[ms]dT*kT*dA[ms]kA*kA; antisense) [Compound 1746797] | 72 | 68 | 139 | 128 | 150 | 143 | 129 | 113 | 71 | 37 | 42 | 18 | 3.77 | – | – | – | –
1746793 (k[5mC]*dT[ms]dT[ms]dG[ms]kG*kT*dG[ms]dA[ms]dA[ms]dT*d[5mC]*dT*dT*dT*dA[ms]dT*kT*kA*dA[ms]kA; antisense) [Compound 1746793] | 86 | 47 | 102 | – | 96 | 96 | 53 | 54 | 34 | 31 | 1 | 2 | 0.56 | – | – | – | –
1746795 (k[5mC]*kT*dT[ms]kG*dG[ms]dT[ms]dG[ms]dA[ms]dA[ms]dT*d[5mC]*dT*dT*dT*dA[ms]dT*kT*dA[ms]kA*kA; antisense) [Compound 1746795] | 75 | 75 | 119 | 115 | 110 | 108 | 99 | 53 | 57 | 28 | 12 | 6 | 1.29 | – | – | – | –
1693051: 5-10-5 MOE gapmer TTGGTGAATCTTTATTAAAC, linkages ssosszzzsssssssosss (antisense eT*eT*eGeG*eT*dG[ms]dA[ms]dA[ms]dT*d[5mC]*dT*dT*dT*dA*dT*eTeA*eA*eA*e[5mC]) [compound 1693051] | – | – | – | – | – | – | – | – | – | – | – | – | – | 97 | 79 | 114 | 76
1693044: 5-10-5 MOE gapmer CTTGGTGAATCTTTATTAAA, linkages sssoszzzzssssssssss (antisense e[5mC]*eT*eT*eGeG*dT[ms]dG[ms]dA[ms]dA[ms]dT*d[5mC]*dT*dT*dT*dA*eT*eT*eA*eA*eA) [compound 1693044] | – | – | – | – | – | – | – | – | – | – | – | – | – | 98 | 63 | 86 | 95
1693040: 5-10-5 MOE gapmer CTTGGTGAATCTTTATTAAA, linkages sssosszzzssssssosss (antisense e[5mC]*eT*eT*eGeG*dT*dG[ms]dA[ms]dA[ms]dT*d[5mC]*dT*dT*dT*dA*eTeT*eA*eA*eA) [compound 1693040] | – | – | – | – | – | – | – | – | – | – | – | – | – | 92 | 71 | 80 | 77
